In brackets after ≈: the same amount, converted by molar mass. Entries after “also recorded” stand apart in the source; their conditions may differ. Read-outs that look alike come from different tables or passages of the source.

Results on six compounds are retold here after patent US10934326B2, “Peripheral modifications on pocket-redesigned vancomycin analogs synergistically improve antimicrobial potency and durability” (priority 2016, dated 2021).

The test system of assay [1] is vancomycin-resistant Enterococcus faecalis (VanA VRE, BM4166). Particulars: BM 4166; previously reported data; cited from earlier work.
In assay [2] the test system is vancomycin-resistant Enterococcus faecalis (VanB VRE, strain ATCC 51299). Particulars: previously reported data; cited from earlier work.
In assay [3] the test system is Enterococcus faecium (VanA VRE, ATCC BAA-2317). The note with it: previously reported data; cited from earlier work.
Assay [4] concerns VanA VRE (E. faecalis BM 4166 and E. faecium ATCC BAA-2317). The assay is described as follows: Cell wall biosynthesis inhibition assay (accumulation of UDPMurNAc-pp 19). Format: cell-based, Enterococcus faecalis; Enterococcus faecium. The note with it: 35 μg/mL, tetracycline pretreated VanA VRE, 30 minutes, 37° C. From the text:
The inhibition of bacterial cell wall synthesis was established in an assay that quantitates the accumulation of the peptidoglycan precursor UDP-N-acetyl-muramyl-depsipentapeptide (Compound 19, UDPMurNAc-pp), resulting from inhibited cell wall incorporation following antibiotic treatment. […] This procedure was reduced in scale and modified to enlist reverse-phase HPLC separation, UV detection, and calibration curve determination of the amount of isolated 19, permitting use with limited sample sizes. A larger scale isolation and full characterization of 19 provided the material needed to establish a linear calibration curve.
The bacterial suspension was heated at 100° C. for 15 minutes to release cytosolic 19. The entire supernatant was analyzed by semi-preparative reverse-phase HPLC with a single injection and the amount of 19 was quantitated with use of the calibration curve.
Cultures of vancomycin-resistant Enterococcus faecalis (VanA VRE, BM4166) and Enterococcus faecium (VanA VRE, ATCC BAA-2317) were inoculated and grown in an orbital shaker at 37° C. in 100% brain-heart infusion broth for 12 hours. The above bacterial solution was subjected to a subculture to obtain fresh mid-log phase bacterial cells (total volume of bacterial suspension=5 mL, incubation time=6 hours, OD600=0.6). […] Vancomycin analogues were added and the mixture was incubated at 37° C. for a further 30 minutes.
After the bacteria were harvested (3000 rpm, 4° C., 20 minutes), this bacterial precipitate was washed and resuspended in 5 mM glucose and 5 mM HEPES buffer (500 μL, 1:1, pH=7.2). This bacterial suspension was heated at 100° C. for 15 minutes and centrifuged (13000 rpm, 25° C., 10 minutes). […] [*****Allen et al., Antimicrob. Agents Chemother. 1996, 40(10):2356-2362]; Liu et al., J. Am. Chem. Soc. 2001, 123:9916-9917.] The amount of UDP Mur N-Ac pentapeptide (19) was quantified by use of calibration curves for E. faecalis BM4166, and for E. faecium ATCC BAA-2317 based on the area under the curve (AUC).

Assay [5] deals with methicillin and oxacillin-resistant Staphylococcus aureus subsp. aureus (MRSA strain ATCC 43300). The note with it: previously reported data; cited from earlier work.
Assay [6] has as its system vancomycin-sensitive Staphylococcus aureus (VSSA strain ATCC 25923). The note with it: previously reported data; cited from earlier work.
The subject of assay [7] is vancomycin-resistant Enterococcus faecalis (VanA VRE, BM4166). The assay is described as follows: In vitro antimicrobial assay (MIC), VanA E. faecalis. Type of assay: cell-based. An excerpt:
(§1) One day before a study was run, fresh cultures of vancomycin-sensitive Staphylococcus aureus (VSSA strain ATCC 25923), methicillin and oxacillin-resistant Staphylococcus aureus subsp. aureus (MRSA strain ATCC 43300), vancomycin-resistant Enterococcus faecalis (VanA VRE, BM4166), Enterococcus faecium (VanA VRE, ATCC BAA-2317), vancomycin-resistant Enterococcus faecalis (VanB VRE, strain ATCC 51299), Escherichia coli (ATCC 25922), Acinetobacter baumannii (ATCC BAA-1710), Pseudomonas aeruginosa (ATCC 15442), Klebsiella pneumoniae (ATCC 700603) were inoculated and grown in an orbital shaker at 37° C. in 100% Mueller-Hinton broth (VSSA, MRSA and VanB VRE), 100% brain-heart infusion broth (VanA VRE, A. baumannii and K. pneumoniae) or 100% Luria broth (E. coli and P. aeruginosa). After 24 hours, the bacterial stock solutions were serially diluted with the culture medium (10% Mueller-Hinton broth for VSSA, MRSA and VanB VRE or 10% brain-heart infusion broth for VanA VRE A. baumannii and K. pneumoniae or 10% Luria Broth for E. coli and P. aeruginosa) to achieve a turbidity equivalent to a 1:100 dilution of a 0.5 M McFarland solution. This diluted bacterial stock solution was then inoculated in a 96-well V-shaped glass coated microtiter plate, supplemented with serial diluted aliquots of the antibiotic solution in DMSO (4 μL), to achieve a total assay volume of 0.1 mL. The plate was then incubated at 37° C. for 18 hours, after which minimal inhibitory concentrations (MICs) were determined by monitoring the cell growth (observed as a pellet) in the wells.
(§2) The lowest concentration of antibiotic (in μg/mL) capable of eliminating cell growth in the wells is the reported MIC value. The reported MIC values for the vancomycin analogues were determined against vancomycin as a standard in the first well.*
(§3) [*Clinical and Laboratory Standards Institute. Methods for Dilution Antimicrobial Susceptibility Tests for Bacteria That Grow Aerobically; Approved Standard, 7th ed.; CLSI document M07-A8; Clinical and Laboratory Standards Institute: Wayne, Pa., 2009.]

Assay [8] has as its system Enterococcus faecium (VanA VRE, ATCC BAA-2317). The assay is described as follows: In vitro antimicrobial assay (MIC), VanA E. faecium. Type of assay: cell-based. The note with it: for antibiotic susceptibility profile of the strain: VanA E. faecium ATCC BAA-2317.
Source text: as §1, §2, §3

Assay [9] relates to VanA VRE (E. faecalis BM 4166 and E. faecium ATCC BAA-2317). The assay is described as follows: Antimicrobial activity against VanA VRE (both strains). Format: cell-based, Enterococcus faecalis; Enterococcus faecium.
Source text: as §1, §2

Assay [10] has the same test system. The assay is described as follows: Cell wall permeability assay (propidium iodide uptake). Format: cell-based, Enterococcus faecalis; Enterococcus faecium. Particulars: 10 μM compound. An excerpt: The effect of the compounds on cell membrane permeability was examined by measuring cytoplasmic membrane uptake of the fluorescent probe propidium iodide in the same VanA vancomycin-resistant E. faecalis (BM 4166) and E. faecium (ATCC BAA-2317) strains. This fluorescent probe only enters cells with permeabilized cell membranes and is detected by the emission of fluorescence upon intracellular nucleic acid binding [Boulos et al., J Microbiol Methods 1999, 37(1):77-86].
Fresh, mid-log phase VanA VRE in pH 7.2 buffer at 25° C. were preincubated with propidium iodide (10 μM) for 5 minutes before the test compounds were added, monitoring the fluorescence emission at 617 nm (excitation at 535 nm) over time, both pre (5 minutes) and post (15 minutes) compound addition. Rapid and sustained increases in fluorescence intensity are observed immediately upon addition of test compounds that induce bacterial cell membrane permeability.
One day before a study was run, cultures of vancomycin-resistant Enterococcus faecalis (VanA VRE, BM4166) and Enterococcus faecium (VanA VRE, ATCC BAA-2317), were inoculated and grown in an orbital shaker at 37° C. in 100% brain-heart infusion broth for 12 hours. The above bacterial solution was subjected to a subculture to obtain fresh mid-log phase bacterial cells (total volume of bacterial suspension=7 mL, incubation time=6 hours, OD600=0.6). After the cultured bacteria were harvested (3000 rpm, 4° C., 20 minutes), the white bacterial precipitate was washed and resuspended in 5 mM glucose and 5 mM HEPES buffer (1:1, 500 μL, pH=7.2).
This bacterial suspension (130 μL) was charged into a 96-well black plate with a clear bottom (Corning 3650). The propidium iodide dye (10 μL, 150 μM DMSO solution) was added to the above suspension and the fluorescence was monitored at 25° C. for 5 minutes at 30 second intervals using a microplate reader (Molecular Devices®, Max Gemini EX) at an excitation wavelength of 535 nm and an emission wavelength of 617 nm. The test compound (150 μM, 10 μL) was added to the cell suspension and the fluorescence was monitored at 25° C. for an additional 15 minutes.

Assay [11] has as its system VanA VRE (E. faecalis BM4166 and E. faecium ATCC BAA-2317). The assay is described as follows: Resistance development study (serial passaging at 0.5×MIC). Particulars: 0.5×MIC serial exposure, MICs monitored daily. Format: cell-based, Enterococcus faecalis; Enterococcus faecium. Here is the method:
However, an additional and even more important feature of the expression of multiple independent mechanisms of action is a mechanism's impact on the rate at which bacterial resistance may emerge.
The MICs of the vancomycin analogues against vancomycin-resistant Enterococcus faecalis (VanA VRE, BM4166) and Enterococcus faecium (VanA VRE, ATCC BAA-2317) were determined. […] A new MIC assay was performed with the same protocol. This process was repeated for 50 passages, and the fold increase in MIC was determined at each passage. [****Pollard et al., J. Antimicrob. Chemother. 2012, 67:2665-2672.]

For `CN[C@H](CC(C)C)C(=O)N[C@H]1C(=O)N[C@@H](CC(N)=O)C(=O)N[C@H]2C(=S)N[C@@H]3C(=O)N[C@H](C(=O)N[C@H](C(=O)O)c4cc(O)cc(O)c4-c4cc3ccc4O)[C@H](O)c3ccc(c(Cl)c3)Oc3cc2cc(c3OC2OC(CO)C(O)[C@H](O)[C@@H]2O[C@H]2CC(C)(N)[C@H](O)[C@H](C)O2)Oc2ccc(cc2Cl)[C@H]1O` (some centres unmarked) [Compound 2], the “Antimicrobial Activity, MIC, VanA E. faecalis” value in assay [1] was >32 µg/mL. The “Antimicrobial Activity, MIC, VanB E. faecalis” value in assay [2] was >32 µg/mL. Besides, the “Antimicrobial Activity, MIC, VanA E. faecium” value in assay [3] is >32 µg/mL. Moreover, the “inhibition of bacterial cell wall synthesis (accumulation of 19)” value (“inhibition” below) in [4] is “do not effectively inhibit bacterial cell wall synthesis”. For the same compound, in [5], the “Antimicrobial Activity, MIC, MRSA S. aureus” value was >32 µg/mL. Further, in assay [6], the “Antimicrobial Activity, MIC, sensitive S. aureus” value is >32 µg/mL.
Regarding `CNC(CC(C)C)C(=O)NC1C(=O)NC(CC(N)=O)C(=O)NC2CNC3C(=O)NC(C(=O)NC(C(=O)O)c4cc(O)cc(O)c4-c4cc3ccc4O)C(O)c3ccc(c(Cl)c3)Oc3cc2cc(c3OC2OC(CO)C(O)C(O)C2OC2CC(C)(N)C(O)C(C)O2)Oc2ccc(cc2Cl)[C@@H]1O` (some centres unmarked) [Compound 4, [Ψ[CH2NH] Tpg^4]vancomycin], the MIC in assay [7] (Enterococcus faecalis, VRE, read-out: Antimicrobial Activity, MIC, VanA E. faecalis) worked out at 31 µg/mL (≈ 21.6 µM); in assay [8] (Enterococcus faecium, read-out: Antimicrobial Activity, MIC, VanA E. faecium), 31 µg/mL (≈ 21.6 µM); in assay [9] (Enterococcus, read-out: MIC against VanA VRE), 31 µg/mL (≈ 21.6 µM). In addition, the “Antimicrobial Activity, MIC, VanA E. faecalis” value in assay [1] was 31 µg/mL. Moreover, in assay [3], the “Antimicrobial Activity, MIC, VanA E. faecium” value was 31 µg/mL. For the same compound, the “inhibition” value in assay [4] is “inhibits bacterial cell wall biosynthesis; also recorded: equally active”.
Regarding `CN[C@H](CC(C)C)C(=O)N[C@H]1C(=O)N[C@@H](CC(N)=O)C(=O)N[C@H]2C(=N)N[C@@H]3C(=O)N[C@H](C(=O)N[C@H](C(=O)O)c4cc(O)cc(O)c4-c4cc3ccc4O)[C@H](O)c3ccc(c(Cl)c3)Oc3cc2cc(c3OC2OC(CO)C(O)[C@H](O)[C@@H]2O[C@H]2CC(C)(NCc3ccc(-c4ccc(Cl)cc4)cc3)[C@H](O)[C@H](C)O2)Oc2ccc(cc2Cl)[C@H]1O` (some centres unmarked) [Compound 7], the “Antimicrobial Activity, MIC, VanA E. faecalis” value in [1] was 0.005 µg/mL. Moreover, in assay [2], the “Antimicrobial Activity, MIC, VanB E. faecalis” value was 0.06 µg/mL. The “Antimicrobial Activity, MIC, VanA E. faecium” value in assay [3] was 0.005 µg/mL. In assay [5], the “Antimicrobial Activity, MIC, MRSA S. aureus” value is 0.06 µg/mL. Besides, the “Antimicrobial Activity, MIC, sensitive S. aureus” value in assay [6] is 0.03 µg/mL.
Regarding `CCCCCCCCCCCCCC[N+](C)(C)CCCNC(=O)[C@H]1NC(=O)[C@H]2NC(=O)[C@@H](NC[C@@H]3NC(=O)[C@H](CC(N)=O)NC(=O)[C@H](NC(=O)[C@@H](CC(C)C)NC)[C@H](O)c4ccc(c(Cl)c4)Oc4cc3cc(c4OC3OC(CO)C(O)[C@H](O)[C@@H]3O[C@H]3CC(C)(N)[C@H](O)[C@H](C)O3)Oc3ccc(cc3Cl)[C@H]2O)c2ccc(O)c(c2)-c2c(O)cc(O)cc21` (some centres unmarked) [Compound 13], the “Antimicrobial Activity, MIC, VanA E. faecalis” value in assay [7] (BM 4166) turned out to be 0.16 µg/mL. In addition, the “Antimicrobial Activity, MIC, VanA E. faecium” value in assay [8] (ATCC BAA-2317) was 0.16 µg/mL. In addition, the “induced cell membrane permeability (propidium uptake)” value in assay [10] is “produced pronounced cell membrane permeability immediately upon addition”. Besides, the “MIC against VanA VRE” value in [9] (both VanA VRE strains) was 0.16 µg/mL. For the same compound, the “fold more potent than pocket analog 4 against VanA VRE” value in assay [9] (relative to Compound 4) amounted to 200 fold. For the same compound, the “fold more potent than C14-vancomycin (12) against VanA VRE” value in [9] (relative to Compound 12) was > 10 fold. Besides, the “fold more potent than vancomycin against VanA VRE” value in assay [9] (relative to vancomycin (1)) was > 1000 fold. Also, the “inhibition” value in assay [4] is given as “equally active”.
For the compound `CC(=O)NC[C@H]1CN(c2ccc(N3CCOCC3)c(F)c2)C(=O)O1` [linezolid], the “antibiotic susceptibility profile of the strain” value in assay [8] is given as “insensitive”. Also, the “emergence of resistance on serial passaging” value in [11] was “arises much faster and is much more pronounced; also recorded: arise much faster and was more pronounced”.
Turning to `CN(C)c1cc(NC(=O)CNC(C)(C)C)c(O)c2c1C[C@H]1C[C@H]3[C@H](N(C)C)C(O)=C(C(N)=O)C(=O)[C@@]3(O)C(O)=C1C2=O` [tigecycline], in assay [8], the “antibiotic susceptibility profile of the strain” value was “sensitive”. Moreover, in assay [11], the “emergence of resistance on serial passaging” value was “arises much faster and is much more pronounced; also recorded: arise much faster and was more pronounced”.

As usually defined, the MIC is the lowest concentration that inhibits growth of the organism.
